Earlier results as cited in paper PMC5911155 (Nature chemistry, 2018).

Test system: Aβ42 monomers
Conditions: ref [7], [42]

Substance: Aβ40: fibrils constructed from other proteins and peptides, including Aβ40
- ability of fibrils to catalyse nucleation of Aβ42 monomers: not able to efficiently catalyse nucleation of Aβ42 monomers
